The series is described as follows: Body weight ratio (FBW/IBW) in the MCF-7 subrenal capsule assay. The format is in vivo, mice. From the text:
Female CDF-1 mice were implanted with a human mammary tumor (MCF-7) underneath the kidney capsules on day 0. […] The negative control group received vehicle only and the positive control was ovariectomized on day 0.

The mark [1] stands for this setting: Table 2, 100 μg/inj. s.c., QDO5.

The values below come from patent US5003011A, “Therapeutic decapeptides” (The Administrators of the Tulane Educational Fund, priority 1989, dated 1991).

Numbered stars: 1 amine (or outer) side, 2 acyl side, 3 side chain; on linkers, the order of the positions; unused ones are H or OH. Square brackets hold non-standard residues; d marks the D form. Peptide text beside a SMILES is read from it. X1 = O=C([C@@H](CCCCNC1CCCC1)N[*:1])[*:2]; X2 = O=C([C@H](CCCCNC1CCCC1)N[*:1])[*:2]; d2Nal = N[C@H](Cc1ccc2ccccc2c1)C(=O)O

For the compound `CC(C)C[C@H](NC(=O)[C@@H](Cc1ccccc1)NC(=O)[C@H](Cc1ccc(O)cc1)NC(=O)[C@H](CO)NC(=O)[C@H](Cc1c[nH]c2ccccc12)NC(=O)[C@H](Cc1c[nH]cn1)NC(=O)[C@@H]1CCC(=O)N1)C(=O)N[C@@H](CCCNC(=N)N)C(=O)N1CCC[C@H]1C(=O)NCC(N)=O` [BIM-21006, reference compound], the “FBW/IBW = Final Body Weight/Initial Body Weight” value under setting [1] came out at 0.99.

As to `CC(=O)N[C@H](Cc1ccc2ccccc2c1)C(=O)N[C@H](Cc1ccccc1)C(=O)N[C@H](Cc1ccccc1)C(=O)N[C@@H](CO)C(=O)N[C@@H](Cc1ccc(O)cc1)C(=O)N[C@H](CCCCNC1CCCC1)C(=O)N[C@@H](Cc1ccccc1)C(=O)N[C@@H](CCCCNC1CCCC1)C(=O)N1CCC[C@H]1C(=O)N[C@H](C)C(N)=O` [BIM-21026] (Ac-[d2Nal][dF][dF]SY[X1]F[X2]P[dA]-NH2), for the setting “Table 3, 25 μg/inj. s.c., QDO5”, the “FBW/IBW = Final Body Weight/Initial Body Weight” value was 1.01.

Consider `CC(C)C[C@H](NC(=O)[C@@H](Cc1c[nH]c2ccccc12)NC(=O)[C@H](Cc1ccc(O)cc1)NC(=O)[C@H](CO)NC(=O)[C@H](Cc1c[nH]c2ccccc12)NC(=O)[C@H](Cc1c[nH]cn1)NC(=O)[C@@H]1CCC(=O)N1)C(=O)N[C@@H](CCCNC(=N)N)C(=O)N1CCC[C@H]1C(=O)NCC(N)=O` [BIM-21003, reference compound], for which the “FBW/IBW = Final Body Weight/Initial Body Weight” value under setting [1] is given as 1.04.

In the case of `CC(=O)N[C@H](Cc1ccc2ccccc2c1)C(=O)N[C@H](Cc1ccccc1)C(=O)N[C@H](Cc1ccccc1)C(=O)N[C@@H](CO)C(=O)N[C@@H](Cc1ccc(O)cc1)C(=O)N[C@H](CCCCNCc1ccccc1)C(=O)N[C@@H](Cc1ccccc1)C(=O)N[C@@H](CCCNC(=N)N)C(=O)N1CCC[C@H]1C(=O)N[C@H](C)C(N)=O` [BIM-21025] (HELM PEPTIDE1{[ac].[O=C([C@@H](Cc1ccc2ccccc2c1)N[*:1])[*:2]].[dF].[dF].S.Y.[O=C([C@@H](CCCCNCc1ccccc1)N[*:1])[*:2]].F.R.P.[dA].[am]}$$$$V2.0), for the setting “Table 3, 25 μg/inj. s.c., QDO5”, the “FBW/IBW = Final Body Weight/Initial Body Weight” value stood at 0.97.

Consider `CC(=O)N[C@H](Cc1ccc2ccccc2c1)C(=O)N[C@H](Cc1ccc(Cl)cc1)C(=O)N[C@H](Cc1ccccc1)C(=O)N[C@@H](CO)C(=O)N[C@@H](Cc1ccc(O)cc1)C(=O)N[C@H](CCCNC(=N)N)C(=O)N[C@@H](Cc1ccccc1)C(=O)N[C@@H](CCCNC(=N)N)C(=O)N1CCC[C@H]1C(=O)N[C@H](C)C(N)=O` [BIM-21009] (HELM PEPTIDE1{[ac].[O=C([C@@H](Cc1ccc2ccccc2c1)N[*:1])[*:2]].[O=C([C@@H](Cc1ccc(Cl)cc1)N[*:1])[*:2]].[dF].S.Y.[dR].F.R.P.[dA].[am]}$$$$V2.0), for which the “FBW/IBW = Final Body Weight/Initial Body Weight” value (Table 2, 1 μg/inj. s.c., QDO5) worked out at 0.98 and the “FBW/IBW = Final Body Weight/Initial Body Weight” value (Table 2, 10 μg/inj. s.c., QDO5) was found to be 0.99.

Regarding `CC(C)[C@@H]1NC(=O)[C@H](CCCCN)NC(=O)[C@@H](Cc2c[nH]c3ccccc23)NC(=O)[C@H](Cc2ccc(O)cc2)NC(=O)[C@@H](NC(=O)[C@H](N)Cc2ccc3ccccc3c2)CSSC[C@@H](C(=O)N[C@H](C(N)=O)[C@@H](C)O)NC1=O` [BIM-23014C, reference compound], the “FBW/IBW = Final Body Weight/Initial Body Weight” value stood at 1.00 (Table 3, 2 μg/inj. s.c., QDO5, b.i.d.); 0.99 (Table 3, 10 μg/inj. s.c., QDO5, b.i.d.); 0.98 (Table 3, 50 μg/inj. s.c., QDO5, b.i.d.).

`CC(=O)N[C@H](Cc1ccc2ccccc2c1)C(=O)N[C@H](Cc1ccc(Cl)cc1)C(=O)N[C@H](Cc1c[nH]c2ccccc12)C(=O)N[C@@H](CO)C(=O)N[C@@H](Cc1ccc(O)cc1)C(=O)N[C@H](CCCNC(=N)N)C(=O)N[C@@H](Cc1ccccc1)C(=O)N[C@@H](CCCNC(=N)N)C(=O)N1CCC[C@H]1C(=O)N[C@H](C)C(N)=O` [BIM-21023] (HELM PEPTIDE1{[ac].[O=C([C@@H](Cc1ccc2ccccc2c1)N[*:1])[*:2]].[O=C([C@@H](Cc1ccc(Cl)cc1)N[*:1])[*:2]].[dW].S.Y.[dR].F.R.P.[dA].[am]}$$$$V2.0): the “FBW/IBW = Final Body Weight/Initial Body Weight” value (Table 3, 25 μg/inj. s.c., QDO5) is 1.01.

For `CC(=O)N[C@H](Cc1ccc2ccccc2c1)C(=O)N[C@H](Cc1ccccc1)C(=O)N[C@H](Cc1ccccc1)C(=O)N[C@@H](CO)C(=O)N[C@@H](Cc1ccccc1)C(=O)N[C@H](CCCNC(=N)N)C(=O)N[C@@H](CC(C)C)C(=O)N[C@@H](CCCNC(=N)N)C(=O)N1CCC[C@H]1C(=O)N[C@H](C)C(N)=O` [BIM-21024] (HELM PEPTIDE1{[ac].[O=C([C@@H](Cc1ccc2ccccc2c1)N[*:1])[*:2]].[dF].[dF].S.F.[dR].L.R.P.[dA].[am]}$$$$V2.0), the “FBW/IBW = Final Body Weight/Initial Body Weight” value (Table 3, 25 μg/inj. s.c., QDO5) amounted to 1.00.

With `CC(=O)N[C@H](Cc1ccc2ccccc2c1)C(=O)N[C@H](Cc1ccccc1)C(=O)N[C@H](Cc1ccccc1)C(=O)N[C@@H](CO)C(=O)N[C@@H](Cc1ccc(O)cc1)C(=O)N[C@H](CCCNC(=N)N)C(=O)N[C@@H](Cc1ccccc1)C(=O)N[C@@H](CCCNC(=N)N)C(=O)N1CCC[C@H]1C(=O)N[C@H](C)C(N)=O` [BIM-21011] (HELM PEPTIDE1{[ac].[O=C([C@@H](Cc1ccc2ccccc2c1)N[*:1])[*:2]].[dF].[dF].S.Y.[dR].F.R.P.[dA].[am]}$$$$V2.0), the “FBW/IBW = Final Body Weight/Initial Body Weight” value reads like this: (Table 2, 1 μg/inj. s.c., QDO5) 0.98; (Table 2, 10 μg/inj. s.c., QDO5) 0.99; (Table 2, 15 μg/inj. s.c., QDO5) 0.99.
